# Test results published in paper PMC7486443, “Generation of Phenothiazine with Potent Anti-TLK1 Activity for Prostate Cancer Therapy” (iScience, 2020).
# Legend:
# Assay in all cases: biochemical
# Design in all cases: DiscoverX KINOMEscan scanMAX competition binding panel, single concentration, percent of control; remaining binding: dose or concentration left out as unconfirmed
# Settings in all cases: KINOMEscan binding, percent of control; read-out: Table S4_SCANMAX REPORT - related to Fig. 1 / Percent Control
# [1] = target: T1, ABL1(T315I)-phosphorylated (Homo sapiens, UniProt P00519, T315I)
# T1 construct: phosphorylated
# [2] = target: T2, CDK4-cyclinD3 (Homo sapiens, UniProt P11802)
# T2 construct: cyclinD3
# [3] = target: CLK3 (Homo sapiens, UniProt P49761)
# [4] = target: T3, DMPK2 (Homo sapiens, UniProt Q6DT37)
# T3 construct: gene CDC42BPG
# [5] = target: T4, DRAK2 (Homo sapiens, UniProt O94768)
# T4 construct: gene STK17B
# [6] = target: EGFR(L861Q) (Homo sapiens, UniProt P00533, L861Q)
# [7] = target: EPHB2 (Homo sapiens, UniProt P29323)
# [8] = target: T5, ERK1 (Homo sapiens, UniProt P27361)
# T5 construct: gene MAPK3
# [9] = target: IRAK3 (Homo sapiens, UniProt Q9Y616)
# [10] = target: MAP4K3 (Homo sapiens, UniProt Q8IVH8)
# [11] = target: T6, MEK1 (Homo sapiens, UniProt Q02750)
# T6 construct: gene MAP2K1
# [12] = target: MET (Homo sapiens, UniProt P08581)
# [13] = target: T7, MST2 (Homo sapiens, UniProt Q13188)
# T7 construct: gene STK3
# [14] = target: NEK7 (Homo sapiens, UniProt Q8TDX7)
# [15] = target: PDGFRA (Homo sapiens, UniProt P16234)
# [16] = target: PRKG2 (Homo sapiens, UniProt Q13237)
# [17] = target: WEE1 (Homo sapiens, UniProt P30291)
# [18] = target: T8, p38-alpha (Homo sapiens, UniProt Q16539)
# T8 construct: gene MAPK14
# T8 sequence (Q16539 whole entry): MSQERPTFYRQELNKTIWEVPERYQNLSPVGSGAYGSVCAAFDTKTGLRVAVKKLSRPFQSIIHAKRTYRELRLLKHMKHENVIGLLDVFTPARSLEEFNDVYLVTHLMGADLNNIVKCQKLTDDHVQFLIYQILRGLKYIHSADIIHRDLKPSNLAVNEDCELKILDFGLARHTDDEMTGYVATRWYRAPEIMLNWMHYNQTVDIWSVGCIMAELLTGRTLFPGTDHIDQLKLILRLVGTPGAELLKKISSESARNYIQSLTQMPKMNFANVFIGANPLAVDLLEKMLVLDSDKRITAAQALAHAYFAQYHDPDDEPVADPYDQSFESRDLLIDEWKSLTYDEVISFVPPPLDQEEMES
# T4 sequence (O94768 whole entry): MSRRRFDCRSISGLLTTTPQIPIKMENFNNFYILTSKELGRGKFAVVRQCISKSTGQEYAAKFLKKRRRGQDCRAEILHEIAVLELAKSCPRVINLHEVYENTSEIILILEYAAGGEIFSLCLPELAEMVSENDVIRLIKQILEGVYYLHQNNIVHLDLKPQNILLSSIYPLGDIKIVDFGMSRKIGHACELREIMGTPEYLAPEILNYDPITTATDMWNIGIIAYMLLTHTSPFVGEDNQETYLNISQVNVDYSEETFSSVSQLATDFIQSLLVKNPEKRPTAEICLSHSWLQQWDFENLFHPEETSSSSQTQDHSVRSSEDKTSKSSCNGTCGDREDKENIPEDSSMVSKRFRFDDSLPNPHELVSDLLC
# Chain of PDGFRA (P16234 whole entry): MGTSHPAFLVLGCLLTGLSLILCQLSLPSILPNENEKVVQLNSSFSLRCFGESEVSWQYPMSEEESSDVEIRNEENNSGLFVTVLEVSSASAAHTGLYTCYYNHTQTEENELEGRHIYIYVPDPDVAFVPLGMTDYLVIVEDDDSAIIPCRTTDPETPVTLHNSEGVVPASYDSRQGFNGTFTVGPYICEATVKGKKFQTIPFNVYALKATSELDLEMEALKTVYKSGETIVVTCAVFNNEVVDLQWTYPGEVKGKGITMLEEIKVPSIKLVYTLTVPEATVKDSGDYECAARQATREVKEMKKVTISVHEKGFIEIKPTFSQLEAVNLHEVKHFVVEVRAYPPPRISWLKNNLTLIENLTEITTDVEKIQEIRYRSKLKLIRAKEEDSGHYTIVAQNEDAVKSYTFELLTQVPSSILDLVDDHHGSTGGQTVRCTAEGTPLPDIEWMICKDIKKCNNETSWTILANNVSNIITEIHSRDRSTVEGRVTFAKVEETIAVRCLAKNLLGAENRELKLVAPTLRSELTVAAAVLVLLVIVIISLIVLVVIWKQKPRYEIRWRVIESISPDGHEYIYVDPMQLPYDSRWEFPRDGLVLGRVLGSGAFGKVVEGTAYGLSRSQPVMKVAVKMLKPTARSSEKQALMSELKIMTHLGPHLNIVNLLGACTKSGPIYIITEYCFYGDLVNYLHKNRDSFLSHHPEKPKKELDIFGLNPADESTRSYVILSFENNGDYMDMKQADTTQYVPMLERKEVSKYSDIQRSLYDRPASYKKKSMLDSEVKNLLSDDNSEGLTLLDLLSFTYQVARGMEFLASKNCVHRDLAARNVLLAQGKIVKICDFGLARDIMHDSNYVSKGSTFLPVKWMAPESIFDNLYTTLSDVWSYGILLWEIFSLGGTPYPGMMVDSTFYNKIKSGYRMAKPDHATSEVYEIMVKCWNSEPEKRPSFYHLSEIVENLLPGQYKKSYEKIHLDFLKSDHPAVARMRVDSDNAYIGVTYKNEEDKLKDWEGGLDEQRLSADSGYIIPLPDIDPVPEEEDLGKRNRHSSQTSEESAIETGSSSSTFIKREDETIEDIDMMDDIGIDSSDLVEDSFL
# T2 sequence (P11802 whole entry): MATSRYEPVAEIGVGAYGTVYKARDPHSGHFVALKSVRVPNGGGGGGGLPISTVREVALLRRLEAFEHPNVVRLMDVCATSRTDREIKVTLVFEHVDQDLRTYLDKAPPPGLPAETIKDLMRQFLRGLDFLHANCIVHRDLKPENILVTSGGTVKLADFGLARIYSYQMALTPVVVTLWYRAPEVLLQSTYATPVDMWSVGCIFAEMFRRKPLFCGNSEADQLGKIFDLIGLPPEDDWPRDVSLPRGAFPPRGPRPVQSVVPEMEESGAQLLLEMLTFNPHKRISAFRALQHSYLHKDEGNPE
# T2 sequence (P30281 whole entry partner): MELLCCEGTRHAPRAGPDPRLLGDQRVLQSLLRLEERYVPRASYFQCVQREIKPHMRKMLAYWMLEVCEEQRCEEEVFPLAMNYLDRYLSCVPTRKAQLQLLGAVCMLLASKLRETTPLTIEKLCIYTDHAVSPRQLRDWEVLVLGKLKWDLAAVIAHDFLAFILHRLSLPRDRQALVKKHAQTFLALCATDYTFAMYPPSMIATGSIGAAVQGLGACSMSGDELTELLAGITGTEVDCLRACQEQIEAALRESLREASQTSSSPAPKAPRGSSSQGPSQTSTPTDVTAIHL
# T5 sequence (P27361 whole entry): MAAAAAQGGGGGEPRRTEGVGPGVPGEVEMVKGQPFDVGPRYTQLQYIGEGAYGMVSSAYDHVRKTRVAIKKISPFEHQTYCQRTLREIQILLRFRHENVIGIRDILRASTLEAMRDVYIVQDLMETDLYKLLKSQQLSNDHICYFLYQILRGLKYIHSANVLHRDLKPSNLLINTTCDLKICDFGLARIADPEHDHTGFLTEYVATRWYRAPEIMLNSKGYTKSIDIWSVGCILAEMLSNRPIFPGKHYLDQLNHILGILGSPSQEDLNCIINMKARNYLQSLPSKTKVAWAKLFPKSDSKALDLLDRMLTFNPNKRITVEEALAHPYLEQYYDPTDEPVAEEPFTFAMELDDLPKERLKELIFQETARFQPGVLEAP
# Chain of MET (P08581 whole entry): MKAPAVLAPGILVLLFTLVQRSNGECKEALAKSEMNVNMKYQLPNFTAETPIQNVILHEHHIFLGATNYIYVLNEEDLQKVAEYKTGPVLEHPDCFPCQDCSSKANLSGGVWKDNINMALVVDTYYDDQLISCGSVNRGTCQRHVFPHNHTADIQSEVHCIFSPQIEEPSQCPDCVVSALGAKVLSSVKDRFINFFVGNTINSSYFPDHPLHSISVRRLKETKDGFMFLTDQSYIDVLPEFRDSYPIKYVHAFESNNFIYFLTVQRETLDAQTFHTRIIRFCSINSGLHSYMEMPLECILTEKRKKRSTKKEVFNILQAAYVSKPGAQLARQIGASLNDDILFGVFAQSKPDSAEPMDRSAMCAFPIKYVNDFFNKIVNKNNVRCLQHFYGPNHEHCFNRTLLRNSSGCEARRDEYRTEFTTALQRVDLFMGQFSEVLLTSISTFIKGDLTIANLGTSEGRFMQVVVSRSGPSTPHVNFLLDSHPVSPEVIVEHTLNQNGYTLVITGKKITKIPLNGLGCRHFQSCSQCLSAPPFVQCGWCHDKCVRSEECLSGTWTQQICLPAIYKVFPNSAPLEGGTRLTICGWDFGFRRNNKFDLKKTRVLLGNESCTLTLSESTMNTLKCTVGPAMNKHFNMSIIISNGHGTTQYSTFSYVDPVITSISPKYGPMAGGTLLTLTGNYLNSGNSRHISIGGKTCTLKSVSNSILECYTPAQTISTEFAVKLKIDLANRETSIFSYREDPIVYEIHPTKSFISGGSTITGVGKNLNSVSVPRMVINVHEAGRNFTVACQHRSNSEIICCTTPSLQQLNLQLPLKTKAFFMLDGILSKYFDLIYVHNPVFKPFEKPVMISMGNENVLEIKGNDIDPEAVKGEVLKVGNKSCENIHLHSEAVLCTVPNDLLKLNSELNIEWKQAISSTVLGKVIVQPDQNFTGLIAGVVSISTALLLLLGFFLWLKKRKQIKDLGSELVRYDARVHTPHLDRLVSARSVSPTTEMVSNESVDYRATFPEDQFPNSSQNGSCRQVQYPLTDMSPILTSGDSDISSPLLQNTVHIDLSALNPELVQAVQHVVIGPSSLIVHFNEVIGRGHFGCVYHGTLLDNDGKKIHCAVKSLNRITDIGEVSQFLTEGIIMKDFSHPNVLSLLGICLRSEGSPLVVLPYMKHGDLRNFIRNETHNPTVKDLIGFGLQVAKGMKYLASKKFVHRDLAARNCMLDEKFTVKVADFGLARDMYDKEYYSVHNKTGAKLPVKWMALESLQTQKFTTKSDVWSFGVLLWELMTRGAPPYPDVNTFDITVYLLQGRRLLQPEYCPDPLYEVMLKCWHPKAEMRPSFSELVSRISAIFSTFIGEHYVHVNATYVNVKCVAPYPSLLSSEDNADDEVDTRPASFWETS
# Chain of NEK7 (Q8TDX7 whole entry): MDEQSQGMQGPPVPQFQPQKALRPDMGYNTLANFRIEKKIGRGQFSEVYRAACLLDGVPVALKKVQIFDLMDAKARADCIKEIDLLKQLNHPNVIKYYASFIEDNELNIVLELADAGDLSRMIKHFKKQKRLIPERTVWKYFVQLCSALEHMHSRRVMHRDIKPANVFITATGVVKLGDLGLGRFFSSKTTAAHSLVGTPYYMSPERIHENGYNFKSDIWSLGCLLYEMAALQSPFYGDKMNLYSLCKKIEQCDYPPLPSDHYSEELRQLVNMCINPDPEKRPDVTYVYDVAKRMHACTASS
# T7 sequence (Q13188 whole entry): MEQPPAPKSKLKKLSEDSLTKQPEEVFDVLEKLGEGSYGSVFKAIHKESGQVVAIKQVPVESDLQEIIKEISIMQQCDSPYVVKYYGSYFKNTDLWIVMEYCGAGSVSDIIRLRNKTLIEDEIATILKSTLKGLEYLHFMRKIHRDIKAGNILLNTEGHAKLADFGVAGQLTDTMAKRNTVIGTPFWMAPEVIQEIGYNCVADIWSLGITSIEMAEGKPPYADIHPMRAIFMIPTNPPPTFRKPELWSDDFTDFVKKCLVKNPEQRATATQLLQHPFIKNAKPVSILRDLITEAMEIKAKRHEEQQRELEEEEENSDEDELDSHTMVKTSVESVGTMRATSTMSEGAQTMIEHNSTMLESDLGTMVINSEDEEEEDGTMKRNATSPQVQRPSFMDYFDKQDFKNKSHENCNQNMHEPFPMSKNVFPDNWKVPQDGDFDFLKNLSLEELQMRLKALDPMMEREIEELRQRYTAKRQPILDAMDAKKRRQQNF
smiles,measurement,setting,value
c1ccc2c(c1)Sc1ccccc1N2CCN1CCOCC1 [J54],remaining binding,[1],93%
same,remaining binding,[2],98%
same,remaining binding,[3],92%
same,remaining binding,[4],89%
same,remaining binding,[5],83%
same,remaining binding,[6],94%
same,remaining binding,[7],100%
same,remaining binding,[8],100%
same,remaining binding,[9],90%
same,remaining binding,[10],100%
same,remaining binding,[11],100%
same,remaining binding,[12],92%
same,remaining binding,[13],100%
same,remaining binding,[14],100%
same,remaining binding,[15],100%
same,remaining binding,[16],99%
same,remaining binding,[17],78%
same,remaining binding,[18],100%
